Assay results from patent publication EP1377579B1 (Aventis Pharmaceuticals Inc., priority 2000, dated 2002).
pIC50: −log10 of the molar value. Structures can show the parent of a compound that is named as a salt.

Columns and labels:
cdk2/cyclin E = cdk2/cyclin E (Homo sapiens, UniProt P24941); experiment: Cyclin-dependent kinase assay, cdk2/cyclin E; settings: CDK2 IC50, nM, GST-pRb substrate, 10 µM ATP
HL-60 = experiment: In vitro proliferation assay (MTT), HL-60; format: cell-based; settings: Homo sapiens, HL-60; MTT assay; value (SD, n) where given; read-out: HL-60 Leuk. (IC50 µM)
Protocol: (§1) The proliferation of tumor cells can be measured using a tetrazolium salt-based assay known as the MTT (3-[4,5-Dimethylthiazol-2-yl]-2,5-diphenyltetrazolium bromide) assay. The proliferation test is performed essentially as described by Carmichael et al., Cancer Res. 47: 936-942, 1987. For the assay, the cell lines are plated onto 96 well plates at 1000 to 2500 cells/well (depending on the properties of the individual cell lines), left to attach and recover overnight. […] After 3 days, the cells are incubated with MTT dye (3-[4,5-Dimethylthiazol-2-yl]-2,5-diphenyltetrazolium bromide, Sigma # M5655, 10 mg/ml in Hank's Buffered Saline) to estimate the amount of live cells remaining vs. concentration for the test compounds. Specifically, MTT solution is added to a final concentration of […] and the plates incubated at 37 C for 2 to 4 hr. The MTT and culture medium is then removed from the cultures and 200 µl of DMSO is added to solubilize the dye from the cell layer. The absorbance at 570 nm is determined for each culture using a Spectramax plate reader (Molecular Devices).
(§2) IC50s were determined from the raw data from either the MTT or SRB assays.
(§3) All of the cell lines were obtained from American Type Tissue Collection, with the ATCC accession number in parentheticals. MCF-7 and MDA-MB-231 cells were grown in improved minimum essential medium (Biofluids) without phenol red, supplemented with 5 % fetal bovine serum, 0.01 mg/ml gentamicin and 3 mM L-glutamine. All of the other cell lines were grown in RPMI 1640 medium (Life Technologies) supplemented with 5 % fetal bovine serum, 0.01 mg/ml gentamicin and 3 mM L-glutamine TABLE 3

cdk1/cyclin B = cdk1/cyclin B (Homo sapiens, UniProt P06493); experiment: Cyclin-dependent kinase assay, cdk1/cyclin B; settings: CDK1 IC50, nM, Histone H1, 10 µM ATP
NCI-H460 = experiment: In vitro proliferation assay (MTT), NCI-H460; format: cell-based; settings: Homo sapiens, NCI-H460; MTT assay; value (SD, n) where given; read-out: H-460 Lung (IC50 µM)
Outline: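 A570 of DMSO-solubilized formazan was the read-out. Seeding: 1000–2500 cells/well, overnight recovery. Compound exposure: 3 days. MTT incubation: 2–4 hr, 37 C. IC50 calculated from raw absorbance.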

cdk4/cyclin D1 = cdk4/cyclin D1 (Homo sapiens, UniProt P11802); experiment: Cyclin-dependent kinase assay, cdk4/cyclin D1; format: biochemical; settings: cyclin D1/cdk4; GST-pRb substrate, 10 µM ATP
Jurkat = experiment: In vitro proliferation assay (MTT), Jurkat; format: cell-based; settings: Homo sapiens, MTT assay, value (SD, n) where given, read-out: Jurkat Leuk. (IC50 µM)
Protocol: as §1, §2, §3

MDA-MB-435 = experiment: In vitro proliferation assay (MTT), MDA-MB-435; format: cell-based, human; settings: Homo sapiens, MDA-MB-435, MTT assay; value (SD, n) where given; read-out: MB-435 Breast (IC50 µM)
Outline: (§4)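 A570 readout of DMSO-solubilized MTT formazan after 3-day compound exposure; IC50 from raw data. Cells plated 1000–2500/well and recovered overnight before dosing.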

Colo-205 = experiment: In vitro proliferation assay (MTT), Colo-205; format: cell-based; settings: Homo sapiens, COLO 205; MTT assay; value (SD, n) where given; read-out: Colo-205 Colon (IC50 µM)
Outline: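 After 3 days of compound exposure, MTT was added to Colo-205 cultures for 2–4 h at 37 °C. Formazan was dissolved in DMSO and absorbance read at 570 nm. Cells had been plated at 1000–2500/well and left to recover overnight; IC50 values came from the raw readings.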

PC-3 = experiment: In vitro proliferation assay (MTT), PC-3; format: cell-based, human; settings: Homo sapiens, PC-3, MTT assay; value (SD, n) where given; read-out: PC-3 Prostate (IC50 µM)
Outline: as §4

cdk1/cyclin B, sequence (P06493 whole entry): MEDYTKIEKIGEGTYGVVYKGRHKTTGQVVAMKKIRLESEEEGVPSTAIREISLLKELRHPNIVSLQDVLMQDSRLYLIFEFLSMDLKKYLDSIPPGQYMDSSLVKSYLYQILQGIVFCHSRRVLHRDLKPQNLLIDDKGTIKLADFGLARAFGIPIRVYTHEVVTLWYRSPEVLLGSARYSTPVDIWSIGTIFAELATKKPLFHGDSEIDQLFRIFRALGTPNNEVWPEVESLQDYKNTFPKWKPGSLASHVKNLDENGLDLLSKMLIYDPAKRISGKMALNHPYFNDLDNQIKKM
cdk1/cyclin B, sequence (P14635 whole entry partner): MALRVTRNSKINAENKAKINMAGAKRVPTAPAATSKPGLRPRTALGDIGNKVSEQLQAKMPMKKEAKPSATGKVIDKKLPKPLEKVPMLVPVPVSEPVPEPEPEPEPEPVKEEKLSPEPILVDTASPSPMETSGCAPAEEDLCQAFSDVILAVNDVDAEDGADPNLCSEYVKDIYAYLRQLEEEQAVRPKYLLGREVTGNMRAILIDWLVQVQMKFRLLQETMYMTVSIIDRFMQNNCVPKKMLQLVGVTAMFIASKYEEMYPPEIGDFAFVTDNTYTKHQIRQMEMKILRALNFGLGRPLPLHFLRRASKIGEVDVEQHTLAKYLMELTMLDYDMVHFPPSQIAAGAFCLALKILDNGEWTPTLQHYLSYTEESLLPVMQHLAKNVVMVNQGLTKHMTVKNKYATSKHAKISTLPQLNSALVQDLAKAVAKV
cdk4/cyclin D1, sequence (P11802 whole entry): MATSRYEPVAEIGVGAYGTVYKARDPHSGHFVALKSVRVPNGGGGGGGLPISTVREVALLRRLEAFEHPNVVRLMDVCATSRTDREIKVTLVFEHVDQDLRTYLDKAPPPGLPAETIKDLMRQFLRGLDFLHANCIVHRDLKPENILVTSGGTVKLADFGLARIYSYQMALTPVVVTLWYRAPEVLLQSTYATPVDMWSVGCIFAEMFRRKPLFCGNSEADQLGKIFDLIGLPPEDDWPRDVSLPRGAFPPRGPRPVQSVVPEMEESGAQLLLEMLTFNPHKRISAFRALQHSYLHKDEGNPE
cdk4/cyclin D1, sequence (P24385 whole entry partner): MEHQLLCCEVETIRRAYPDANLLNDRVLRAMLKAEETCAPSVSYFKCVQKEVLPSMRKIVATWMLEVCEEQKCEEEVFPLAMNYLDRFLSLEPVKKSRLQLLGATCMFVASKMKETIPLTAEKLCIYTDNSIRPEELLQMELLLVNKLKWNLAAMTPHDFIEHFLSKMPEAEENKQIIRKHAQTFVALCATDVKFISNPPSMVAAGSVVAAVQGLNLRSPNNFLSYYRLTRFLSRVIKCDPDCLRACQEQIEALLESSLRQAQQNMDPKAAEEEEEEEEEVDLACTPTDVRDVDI

SMILES | IC50 (cdk2/cyclin E) [nM] | IC50 (HL-60) [µM] | IC50 (cdk1/cyclin B) [nM] | IC50 (NCI-H460) [µM] | pIC50 (cdk4/cyclin D1) | IC50 (Jurkat) [µM] | IC50 (MDA-MB-435) [µM] | IC50 (Colo-205) [µM] | IC50 (PC-3) [µM]
N[C@H]1CC[C@H](Nc2nc(NC3CCN(C(=O)Nc4cc(C(F)(F)F)ccc4Cl)CC3)c3ncn(C4CCCC4)c3n2)CC1 [compound 177, trans-4-[2-(4-Amino-cyclohexylamino)-9-cyclopentyl-9H-purin-6-ylamino]-piperidine-1-carboxylic acid (2-chloro-5-trifluoromethyl-phenyl)-amide dihydrochloride] | 60 | 0.03 | 7 | 0.14 | 6.36 | 0.21 | 0.17 | 0.12 | 0.15
N[C@H]1CC[C@H](Nc2nc(NC3CCN(C(=O)Nc4cc(F)ccc4F)CC3)c3ncn(C4CCCC4)c3n2)CC1 [compound 180, trans-4-[2-(4-Amino-cyclohexylamino)-9-cyclopentyl-9H-purin-6-ylamino]-piperidine-1-carboxylic acid (2,5-difluoro-phenyl)-amide dihydrochloride] | 44 | < 0.02 | 12 | 0.12 | 6.37 | 0.2 | 0.1 | 0.04 | 0.09
CSc1ccc(NC(=O)N2CCC(Nc3nc(N[C@H]4CC[C@H](N)CC4)nc4c3ncn4C3CCCC3)CC2)cc1 [compound 186, trans-4-[2-(4-Amino-cyclohexylamino)-9-cyclopentyl-9H-purin-6-ylamino]-piperidine-1-carboxylic acid (4-methylsulfanyl-phenyl)-amide dihydrochloride] | 56 | < 0.02 | 11 | 0.28 | 6.33 | 0.21 | 0.09 | 0.03 | 0.16
N[C@H]1CC[C@H](Nc2nc(NC3CCN(C(=O)Nc4ccccc4-c4ccccc4)CC3)c3ncn(C4CCCC4)c3n2)CC1 [compound 187, trans-4-[2-(4-Amino-cyclohexylamino)-9-cyclopentyl-9H-purin-6-ylamino]-piperidine-1-carboxylic acid biphenyl-2-yl-amide dihydrochloride] | 61 | < 0.02 | 280 | 0.25 | 6.08 | 0.35 | 0.21 | 0.19 | 0.19
CCOc1ccc(NC(=O)N2CCC(Nc3nc(N[C@H]4CC[C@H](N)CC4)nc4c3ncn4C3CCCC3)CC2)cc1 [compound 191, trans-4-[2-(4-Amino-cyclohexylamino)-9-cyclopentyl-9H-purin-6-ylamino]-piperidine-1-carboxylic acid (4-ethoxy-phenyl)-amide dihydrochloride] | 36 | < 0.02 | 23 | 0.41 | 6.53 | 0.36 | 0.25 | 0.07 | 0.24
CCOC(=O)c1ccccc1NC(=O)N1CCC(Nc2nc(N[C@H]3CC[C@H](N)CC3)nc3c2ncn3C2CCCC2)CC1 [compound 199, trans-2-[(1-{4-[2-(4-Amino-cyclohexylamino)-9-cyclopentyl-9H-purin-6-ylamino]-piperidin-1-yl}-methanoyl)-amino]-benzoic acid ethyl ester dihydrochloride] | 20 | 0.06 | 70 | 0.18 | 6.17 | 0.34 | 0.26 | 0.06 | 0.26

Next, values leading:

IC50 (cdk2/cyclin E) [nM] | IC50 (HL-60) [µM] | IC50 (cdk1/cyclin B) [nM] | IC50 (NCI-H460) [µM] | pIC50 (cdk4/cyclin D1) | IC50 (Jurkat) [µM] | IC50 (MDA-MB-435) [µM] | IC50 (Colo-205) [µM] | IC50 (PC-3) [µM] | SMILES
100 | < 0.02 | 49 | 0.23 | 6.06 | 0.28 | 0.14 | 0.09 | 0.16 | N[C@H]1CC[C@H](Nc2nc(NC3CCN(C(=O)Nc4ccc(Cl)cc4C(F)(F)F)CC3)c3ncn(C4CCCC4)c3n2)CC1 [compound 178, trans-4-[2-(4-Amino-cyclohexylamino)-9-cyclopentyl-9H-purin-6-ylamino]-piperidine-1-carboxylic acid (4-chloro-2-trifluoromethyl-phenyl)-amide dihydrochloride]
261 | 0.07 | 8 | 0.5 | 6.30 | 0.5 | 0.24 | 0.18 | 0.37 | N[C@H]1CC[C@H](Nc2nc(NC3CCN(C(=O)Nc4ccc(Cl)c(C(F)(F)F)c4)CC3)c3ncn(C4CCCC4)c3n2)CC1 [compound 179, trans-4-[2-(4-Amino-cyclohexylamino)-9-cyclopentyl-9H-purin-6-ylamino]-piperidine-1-carboxylic acid (4-chloro-3-trifluoromethyl-phenyl)-amide dihydrochloride]
174 | 0.02 | 32 | 0.12 | 6.52 | 0.17 | 0.15 | < 0.02 | 0.1 | N[C@H]1CC[C@H](Nc2nc(NC3CCN(C(=O)Nc4cc(Cl)cc(Cl)c4)CC3)c3ncn(C4CCCC4)c3n2)CC1 [compound 182, trans-4-[2-(4-Amino-cyclohexylamino)-9-cyclopentyl-9H-purin-6-ylamino]-piperidine-1-carboxylic acid (3,5-dichloro-phenyl)-amide dihydrochloride]
64 | < 0.02 | 17 | 0.2 | 6.47 | 0.19 | 0.11 | 0.05 | 0.17 | Cc1ccc(NC(=O)N2CCC(Nc3nc(N[C@H]4CC[C@H](N)CC4)nc4c3ncn4C3CCCC3)CC2)cc1 [compound 183, trans-4-[2-(4-Amino-cyclohexylamino)-9-cyclopentyl-9H-purin-6-ylamino]-piperidine-1-carboxylic acid (4-methyl-phenyl)-amide dihydrochloride]
40 | < 0.02 | 23 | 0.36 | 6.45 | 0.2 | 0.09 | 0.02 | 0.2 | CC(C)c1ccc(NC(=O)N2CCC(Nc3nc(N[C@H]4CC[C@H](N)CC4)nc4c3ncn4C3CCCC3)CC2)cc1 [compound 190, trans-4-[2-(4-Amino-cyclohexylamino)-9-cyclopentyl-9H-purin-6-ylamino]-piperidine-1-carboxylic acid (4-isopropyl-phenyl)-amide dihydrochloride]
8 | 0.03 | 26 | 0.13 | 6.29 | 0.26 | 0.17 | 0.18 | 0.18 | COC(=O)c1ccccc1NC(=O)N1CCC(Nc2nc(N[C@H]3CC[C@H](N)CC3)nc3c2ncn3C2CCCC2)CC1 [compound 193, trans-2-[(1-{4-[2-(4-Amino-cyclohexylamino)-9-cyclopentyl-9H-purin-6-ylamino]-piperidin-1-yl}-methanoyl)-amino]-benzoic acid methyl ester dihydrochloride]
